What was measured:
tumor [1] = experiment: PET scan imaging, tumor uptake of bifunctional (Sar cage) core compound; type: in vivo; conditions: mouse, FIG. 5
PC3-PSMA model = experiment: PET scan imaging, tumor uptake in rodents; type: in vivo, mouse
tumor [2] = experiment: Imaging, tumor uptake in non-human primate models; type: in vivo; conditions: non-human primate (NHP) models, times higher than PSMA-617
Protocol: (§1) Indeed, SGs uptake of ^64Cu-NOTA-UNC-PSMA2 is only 1/10th of ^64Cu-PSMA-617 at 24 h post-injection in the NHP study (FIG. 1, panel B).

[3] = PET scan imaging, salivary gland uptake in non-human primate; type: in vivo; conditions: 24 hours post injection, relative to 64Cu-PSMA-617, FIG. 1 panel B
Protocol: as §1

tumor [4] = experiment: PET scan imaging of 68Ga-PSMA-617 tumor uptake; type: in vivo; conditions: rodent models, PET scan image of a mouse, FIG. 2 panel A
[5] = SPECT/CT imaging, SG uptake in rodent models; type: in vivo
[6] = SPECT/CT imaging, gland uptake in a human subject; type: in vivo

N#CC1CCCN1C(=O)CNC(=O)c1ccnc2ccc(OCCCN3CCN(C(=O)CCOCCOCCNC(=O)NC45CNCCNCC(NC(=O)NCCOCCOCCC(=O)N6CCN(CCCOc7ccc8nccc(C(=O)NCC(=O)N9CCCC9C#N)c8c7)CC6)(CNCCNC4)CNCCNC5)CC3)cc12 (stereo not shown)
uptake into a tumor (in words) (tumor [1]): Uptake of this compound into a tumor

O=C(O)CC[C@H](NC(=O)N[C@@H](CCCCNC(=O)[C@H](Cc1ccc2ccccc2c1)NC(=O)C1CCC(CNC(=O)CSCCS(=O)(=O)CCOCCn2c(=O)n(CCOCCS(=O)(=O)CCSCC(=O)NC[C@H]3CC[C@H](C(=O)N[C@@H](Cc4ccc5ccccc5c4)C(=O)NCCCC[C@H](NC(=O)N[C@@H](CCC(=O)O)C(=O)O)C(=O)O)CC3)c(=O)n(CCOCCS(=O)(=O)CCSCC(=O)Nc3ccc(CC4CN(CC(=O)O)CCN(CC(=O)O)CCN4CC(=O)O)cc3)c2=O)CC1)C(=O)O)C(=O)O (stereo partly shown) [^64Cu-NOTA-UNC-PSMA2, metal not drawn]
distribution (in words) (PC3-PSMA model; 24 and 48 h post injection, FIG. 1 panel A): persistent as only the tumor demonstrated prominent compound uptake
tumor uptake (in words) (PC3-PSMA model; mouse, PC3-PSMA model, PET scan image, FIG. 1 panel A): high and persistent tumor uptake
tumor uptake compared to PSMA-617 (PC3-PSMA model; rodent models, times higher than PSMA-617): 2-3 times
tumor uptake compared to PSMA-617 (tumor [2]): 2-3 times
SG uptake relative to 64Cu-PSMA-617 [3]: 1/10

O=C(O)CC[C@H](NC(=O)N[C@@H](CCCCNC(=O)[C@H](Cc1ccc2ccccc2c1)NC(=O)[C@H]1CC[C@H](CNC(=O)CN2CCN(CC(=O)O)CCN(CC(=O)O)CCN(CC(=O)O)CC2)CC1)C(=O)O)C(=O)O.[Ga+3] [^68Ga-PSMA-617]
tumor uptake profile (in words) (tumor [4]): clean tumor uptake profile

O=C(O)CC[C@H](NC(=O)N[C@@H](CCCCNC(=O)[C@H](Cc1ccc2ccccc2c1)NC(=O)[C@H]1CC[C@H](CNC(=O)CN2CCN(CC(=O)O)CCN(CC(=O)O)CCN(CC(=O)O)CC2)CC1)C(=O)O)C(=O)O.[Lu+3] [^177Lu-PSMA-617]
SG uptake (in words) [5]: prominent SG uptake
SG uptake (in words) ([6]; SPECT/CT imaging): prominent SG uptake
glands uptake (in words) ([6]; SPECT/CT, 24 hours post injection, FIG. 2 panel B): high glands uptake
